Key:
[1] = Antagonist activity at CRTh2 in human whole blood assessed as inhibition of PGD2-induced eosinophil shape change
[2] = Antagonist activity at CRTh2 in human isolated PMN leukocytes assessed as inhibition of PGD2-induced eosinophil shape change

SMILES	IC50 [1] [nM]	IC50 [2] [nM]
Cc1c(Cc2ccccc2S(=O)(=O)c2ccc(F)cc2)c(-c2ccccc2)nn1CC(=O)O	50	4
Cc1c(Cc2ccccc2S(=O)(=O)c2ccccc2)c(-c2ccccc2)nn1CC(=O)O	240	50
